Data taken from patent publication US20220062317A1, “NA+/K+ ATPASE INHIBITORS FOR USE IN THE PREVENTION OR TREATMENT OF METASTASIS” (UNIVERSITÄT BASEL, priority 2018, published 2022).

What was measured:
BR16 CTC-derived cells = assay: FDA-approved compound screen for CTC cluster dissociation (high content imaging); assay type: cell-based, human; details: even at lowest concentration tested (0.1 μM), 2 days, hypoxia
Protocol: In order to identify actionable vulnerabilities of CTC clusters, and to test whether the epigenetic and transcriptional features of clustered CTCs are reversible upon cluster dissociation into single cells the following steps were undertaken. First, the expression of all known cell-cell junction (CCJ) components in patient samples obtained from normal breast (TGCA REF), breast cancer (TOGA REF), single CTCs and CTC clusters were assessed (Aceto et al. Cell 2014). While breast cancer cells tend to only partially reduce their CCJ repertoire compared to normal breast cells, CTCs express only a small fraction of CCJ components, likely as a consequence to their increased motility. Yet, CTC clusters retain a higher number of CCJs as compared to single CTCs. […] To this end, 2′486 FDA-approved compounds were evaluated for their ability to dissociate clusters of human breast CTC-derived cells. Cluster dissociation was assessed using a high content screening microscope and comparing cells treated with each individual compound to steady state clustered BR16 cells and 40 μm-filtered BR16 single cell suspension as negative and positive controls, respectively (FIG. 4a). […] For the majority of the 2′486 FDA-approved compounds, when using a 5 μM concentration for 2 days in hypoxic conditions, no detectable reduction in cell viability (>70% viability) nor mean cluster size (>450 μm2) in BR16 CTC-derived cells was observed. […] These compounds include inhibitors of Na^+/K^+ ATPases (n=6), HDACs (n=2), nucleotide biosynthesis (n=5), kinases (n=4), GPCRs (n=2), cholesterol biosynthesis (n=1), nuclear export (n=1), tubulin (n=9), as well as DNA binding compounds (n=8) and antibiotics (n=1).
A library containing 2,486 FDA-approved compounds was purchased from the Nexus Platform ETH Zurich. Each compound was resuspended using CTC medium at a 15 μM concentration and 20 μl were aliquoted in duplicate in a total of 64 Flat Bottom Clear Ultra Low attachment 96-well plates (Corning, Cat #3474).
To reduce cluster size in CTC derived cell lines, a 40 μm cell strainer was used (Corning, Cat #431750). […] Plates were incubated in hypoxia (5% oxygen) for 2 days and then 20 μl were transferred into a 96 well Black/clear Tissue culture treated plate (BD Falcon, Cat #353219) containing 40 μl of D-PBS (Invitrogen, Cat #14190169) and stained for 1 hr at 37° C. with a final concentration of 4 μM Hoechst 34580 (Invitrogen, Cat #H21486), 2 μM TMRM (Invitrogen, Cat #T668) and 4 μM TOTO-3 (Invitrogen, Cat #T3604). For each plate, two positive controls (non-treated cells) and two negative controls (non-treated and […] cells) were included. Z-factors were calculated per individual plate using the following formula: Z′=1−3(σs+σc)/|μs−μc|^3 (σ: standard deviation, μ: mean, s: positive control and c: negative control) (Martin et al., PLoS One 9, e88338, 2014) and ranged between 0.62-0.937. Plates were scanned using Operetta High Content Imaging System (Perkin Elmer) and cluster analysis was performed using Harmony High Content Imaging and Analysis Software (Perkin Elmer).

BR16 cells = assay: Tail vein injection of in vitro pre-treated BR16 cells, metastasis seeding; assay type: in vivo, NSG mice
Protocol: To test whether ouabain and digitoxin would also enable CTC clusters disruption in vivo, the inventors took a dual approach. First, the inventors tested whether a 17-day in vitro treatment with ouabain and digitoxin would translate into a reduced ability of the treated cells to efficiently seed metastasis in untreated mice (FIG. 7A). To this end, upon treatment, BR16 cells stably expressing GFP-luciferase were injected into the tail vein of NSG mice and noninvasively monitored through luminescence imaging for their ability to seed and propagate metastatic lesions.
(§1) For tail vein experiments, NOD SCID Gamma (NSG) mice (Jackson Labs) were injected with 1×10^6 BR16-mCherry cells resuspended in 100 μl D-PBS and monitored with IVIS Lumina II (Perkin Elmer). For CTC xenograft mouse model isolation, 1×10^6 LM2-GFP, 1×10^6 BRx50-GFP or 1×10^6 BR16-GFP cells were resuspended in 100 μl of 50% Cultrex PathClear Reduced Growth Factor Basement Membrane Extract (R&D Biosystems, Cat #3533-010-02) in D-PBS and injected orthotopically in NSG mice. Blood draw was performed 4-5 weeks after tumor onset for LM2 cells, 5-6 months after tumor onset for BR16 and 6-7 months after tumor onset for BRx50 cells.

BR16 xenografts = assay: BR16 xenograft (mammary fat pad), spontaneous CTC clusters and metastasis; assay type: in vivo, NSG mice; details: ouabain daily for three weeks
Protocol: Blood specimens for CTC analysis were obtained from University Hospital Basel after informed patient consent according to protocol EKNZ BASEC 2016-00067 and EK 321/10, which received ethical approval from the Swiss authorities (EKNZ, Ethics Committee northwest/central Switzerland). An average of 7.5 ml of blood per patient was drawn in EDTA vacutainers. Within 1 hr from blood draw, the blood was processed through Parsortix GEN3D6.5 Cell Separation Cassette (Angle Europe). For mouse studies, blood was retrieved via cardiac puncture and 1 ml of blood was similarly processed through a Parsortix device. Captured CTCs were further stained on Parsortix cassette with EpCAM-AF488 conjugated (CellSignaling, Cat #CST5198), HER2-AF488 (#324410, BioLegend), EGFR-FITC conjugated (GeneTex, Cat #GTX11400) and CD45-BV605 conjugated (Biolegend, Cat #304042 (anti-human); Cat #103140 (anti-mouse)) antibodies. For all other models (xenografts), carrying cancer cells stably expressing a GFP-Luciferase reporter, only anti-CD45 staining was performed, while CTCs were identified based on GFP expression. The number of captured CTCs, including single CTCs, CTC clusters and CTC-WBC clusters, was determined while cells were still in the cassette. CTCs were then released from the cassette in DPBS (#14190169, Gibco) onto ultra-low attachment plates (#3471-COR, Corning). Representative pictures were taken at 40× magnification with Leica DM14000 fluorescent microscope using Leica LAS and analyzed with ImageJ.
as §1

C[C@@H]1O[C@@H](O[C@H]2C[C@@H](O)[C@]3(CO)[C@H]4[C@H](O)C[C@]5(C)[C@@H](C6=CC(=O)OC6)CC[C@]5(O)[C@@H]4CC[C@]3(O)C2)[C@H](O)[C@H](O)[C@H]1O [ouabain, Ouabain]
mean cluster size (BR16 CTC-derived cells): significant decrease in mean cluster size | expression of cleaved caspase 3 compared to control cells (BR16 cells; cancer cells in lungs, pre-treated cells, day 1): significant increase | ability of BR16 cells to lodge in the lung tissue immediately after injection (bioluminescence flux) (BR16 cells; cells pre-treated 17 days in vitro, 20 nM, tail vein, day 0): did not affect | ability to survive during the first day upon arrival (bioluminescence flux) (BR16 cells; cells pre-treated 17 days in vitro, 20 nM, tail vein, day 1): reduced ability to survive | metastatic outgrowth (BR16 cells; pre-treated cells, no further treatment in vivo, 72 days upon injection): delayed metastatic outgrowth | frequency of single CTCs (BR16 xenografts): increasing the frequency | frequency of spontaneously-generated CTC clusters (BR16 xenografts): reduced the frequency | overall CTC numbers (BR16 xenografts): without altering | size of the primary tumor (BR16 xenografts): without altering | suppression of the total metastatic burden (BR16 xenografts): 80.7 fold
